In experiment [1] the test system is Rattus norvegicus. Nature of the experiment: Sleep promoting activity in rat assessed as decrease in latency at 40 mg/kg, sc. It counts as functional, organism-based. More on the design: dose 40 mg/kg.
For experiment [2], the species on record is Rattus norvegicus. Nature of the experiment: Anxiolytic activity in Sprague-Dawley rat by elevated plus maze test. It counts as functional, organism-based.
The test system of experiment [3] is Rattus norvegicus. The experiment is described as follows: Sleep promoting activity in rat assessed as increase of paradoxical sleep latency at 40 mg/kg, sc. It counts as functional, organism-based. More on the design: dose 40 mg/kg.
The test system of experiment [4] is Rattus norvegicus. The experiment is described as follows: Sleep promoting activity in rat assessed as increase in duration of slow wave sleep at 40 mg/kg, sc. It counts as functional, organism-based. Further details: dose 40 mg/kg.
The target of experiment [5] is T1, Melatonin receptor type 1B (Homo sapiens, UniProt P49286).
T1 sequence (P49286 whole entry): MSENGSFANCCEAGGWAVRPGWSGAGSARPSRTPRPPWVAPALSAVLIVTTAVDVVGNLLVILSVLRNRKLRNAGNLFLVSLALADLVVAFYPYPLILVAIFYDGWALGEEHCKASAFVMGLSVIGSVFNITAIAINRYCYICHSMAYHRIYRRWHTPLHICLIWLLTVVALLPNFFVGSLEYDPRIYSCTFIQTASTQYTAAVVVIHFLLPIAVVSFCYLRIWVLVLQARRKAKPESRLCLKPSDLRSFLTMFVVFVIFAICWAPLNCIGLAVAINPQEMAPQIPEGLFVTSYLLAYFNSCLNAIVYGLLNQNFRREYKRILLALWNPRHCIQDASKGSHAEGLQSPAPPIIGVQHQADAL
The experiment is described as follows: Displacement of 2-[125I]iodomelatonin from human cloned MT2 receptor expressed in […] NIH3T3 cells. It counts as cell-based.

Experiment [6] has as its target Melatonin receptor type 1A (Homo sapiens, UniProt P48039). The experiment is described as follows: Displacement of 2-[125I]iodomelatonin from human cloned MT1 receptor expressed in […] NIH3T3 cells. It counts as cell-based.

Active and inactive are the calls of the source. The calls are words filed in the database; no cut-off is given here.

Melatonin receptor type 1A, sequence (P48039 whole entry): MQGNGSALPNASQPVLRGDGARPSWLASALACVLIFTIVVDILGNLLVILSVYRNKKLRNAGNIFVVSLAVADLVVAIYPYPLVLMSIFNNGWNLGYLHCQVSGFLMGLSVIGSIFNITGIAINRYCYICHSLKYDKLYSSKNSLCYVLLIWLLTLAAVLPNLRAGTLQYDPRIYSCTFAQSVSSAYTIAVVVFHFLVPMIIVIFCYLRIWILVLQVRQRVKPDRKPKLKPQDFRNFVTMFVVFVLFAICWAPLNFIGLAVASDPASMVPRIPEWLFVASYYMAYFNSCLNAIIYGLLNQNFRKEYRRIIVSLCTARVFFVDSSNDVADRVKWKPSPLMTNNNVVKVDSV

On to `COc1cccc(N(CCNC(C)=O)c2ccccc2)c1`, for which the result in the experiment with Rattus norvegicus [1], in the experiment listed under Rattus norvegicus [2], in the experiment with Rattus norvegicus [3] and in the experiment on Rattus norvegicus [4] was Active.
With `COc1cccc(NCCNC(C)=O)c1`, the affinity in experiment [5], expressed as Ki, was 7.41 nM.
Regarding `COc1cccc(OCCNC(C)=O)c1`, the Ki in experiment [6] is 7.24 nM; in experiment [5], 12.6 nM.
The molecule `COc1cccc(N(CCNC(=O)C2CCC2)c2ccccc2)c1` gave a Ki in experiment [6] of 324 nM.

These data come from ChEMBL document CHEMBL1138357 (J Med Chem, 2007).
